Measurements: article PMC11631053, “A receptor-based assay to study the sweet and bitter tastes of sweeteners and binary sweet blends: the SWEET project” (Chemical Senses, 2024)
Read-outs that look alike come from different tables or passages of the source. Marks after values point to notes of the source that are not given here.

What was measured:
TAS2R50 = target: T1, TAS2R50 (Homo sapiens, UniProt P59544); experiment: Calcium mobilization assay, HEK293T-Gα16gust44 cells expressing TAS2R50; conditions: maximal concentration tested: sucralose 100 mM, neotame 30 µM, Ace-K 300 mM, RebA 4 mM, RebM 4 mM, mogroside V 5 mM, erythritol 200 mM, D-allulose 500 mM, thaumatin 100 mM
T1 sequence (P59544 1-299): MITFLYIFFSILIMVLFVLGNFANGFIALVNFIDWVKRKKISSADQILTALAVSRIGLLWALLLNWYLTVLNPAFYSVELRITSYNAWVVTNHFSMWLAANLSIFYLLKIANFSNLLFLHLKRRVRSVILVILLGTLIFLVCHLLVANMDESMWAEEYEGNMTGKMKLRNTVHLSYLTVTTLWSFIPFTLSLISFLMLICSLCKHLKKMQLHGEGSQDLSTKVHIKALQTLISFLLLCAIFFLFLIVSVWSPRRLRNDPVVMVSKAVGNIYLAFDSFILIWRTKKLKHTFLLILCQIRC
Experimental: (§1) Different concentration ranges were tested depending on the injected sweet compound. […] All of the concentration-receptor combinations were measured in triplicate, and each experiment was repeated at least 3 times. The Ca^2+ change was expressed as a fractional change in fluorescent light intensity: ΔF/F = (F − F0)/F0, where F was the fluorescent light intensity at each point, and F0 was the value of fluorescent light emitted prior to stimulus application. To calculate dose–response relationships, the changes in fluorescence upon stimulus application were averaged, mock-subtracted and baseline-corrected. The resulting obtained dose–response data were adjusted by using a 4-parameter logistic equation. The half-maximal effective concentration (EC50) was calculated by using SigmaPlot software (Systat Software, San Jose, CA, USA) as described in supplemental Supplementary Figs. S1, S2, and S3.

[1] = sucrose = 1, cited from earlier work
TAS2R42 = target: T2, TAS2R42 (Homo sapiens, UniProt Q7RTR8); experiment: Calcium mobilization assay, HEK293T-Gα16gust44 cells expressing TAS2R42; conditions: maximal concentration tested: sucralose 100 mM, neotame 30 µM, Ace-K 300 mM, RebA 4 mM, RebM 4 mM, mogroside V 5 mM, erythritol 200 mM, D-allulose 500 mM, thaumatin 100 mM
T2 sequence (Q7RTR8 1-314): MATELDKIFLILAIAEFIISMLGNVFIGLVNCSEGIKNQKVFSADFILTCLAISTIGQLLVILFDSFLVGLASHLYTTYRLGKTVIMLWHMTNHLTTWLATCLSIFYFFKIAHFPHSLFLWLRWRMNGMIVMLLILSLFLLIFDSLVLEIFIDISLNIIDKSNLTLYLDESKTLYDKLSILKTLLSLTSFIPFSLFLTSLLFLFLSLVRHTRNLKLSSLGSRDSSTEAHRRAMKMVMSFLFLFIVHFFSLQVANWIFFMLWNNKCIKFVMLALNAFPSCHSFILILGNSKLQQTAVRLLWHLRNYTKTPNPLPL
Experimental: as §1

TAS2R3 = target: T3, TAS2R3 (Homo sapiens, UniProt Q9NYW6); experiment: Calcium mobilization assay, HEK293T-Gα16gust44 cells expressing TAS2R3; conditions: maximal concentration tested: sucralose 100 mM, neotame 30 µM, Ace-K 300 mM, RebA 4 mM, RebM 4 mM, mogroside V 5 mM, erythritol 200 mM, D-allulose 500 mM, thaumatin 100 mM
T3 sequence (Q9NYW6 1-316): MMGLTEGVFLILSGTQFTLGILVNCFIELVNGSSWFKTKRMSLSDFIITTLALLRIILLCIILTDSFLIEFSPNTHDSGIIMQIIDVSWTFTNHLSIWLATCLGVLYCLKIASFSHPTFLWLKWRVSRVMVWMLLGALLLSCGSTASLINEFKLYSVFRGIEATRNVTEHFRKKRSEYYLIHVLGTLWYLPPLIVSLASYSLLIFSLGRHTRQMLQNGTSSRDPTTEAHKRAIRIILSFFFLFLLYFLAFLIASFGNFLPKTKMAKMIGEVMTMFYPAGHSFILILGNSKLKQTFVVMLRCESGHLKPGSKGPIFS
Experimental: as §1

TAS2R40 = TAS2R40 (Homo sapiens, UniProt P59535); experiment: Calcium mobilization assay, HEK293T-Gα16gust44 cells expressing TAS2R40; conditions: maximal concentration tested: sucralose 100 mM, neotame 30 µM, Ace-K 300 mM, RebA 4 mM, RebM 4 mM, mogroside V 5 mM, erythritol 200 mM, D-allulose 500 mM, thaumatin 100 mM
Experimental: (§2) Different concentration ranges were tested depending on the injected sweet compound. […] All of the concentration-receptor combinations were measured in triplicate, and each experiment was repeated at least 3 times. The Ca^2+ change was expressed as a fractional change in fluorescent light intensity: ΔF/F = (F − F0)/F0, where F was the fluorescent light intensity at each point, and F0 was the value of fluorescent light emitted prior to stimulus application. To calculate dose–response relationships, the changes in fluorescence upon stimulus application were averaged, mock-subtracted and baseline-corrected. The resulting obtained dose–response data were adjusted by using a 4-parameter logistic equation.

TAS2R31 = target: T4, TAS2R31 (Homo sapiens, UniProt P59538); experiment: Calcium mobilization assay, HEK293T-Gα16gust44 cells expressing TAS2R31; conditions: maximal concentration tested: sucralose 100 mM, neotame 30 µM, Ace-K 300 mM, RebA 4 mM, RebM 4 mM, mogroside V 5 mM, erythritol 200 mM, D-allulose 500 mM, thaumatin 100 mM
T4 sequence (P59538 1-309): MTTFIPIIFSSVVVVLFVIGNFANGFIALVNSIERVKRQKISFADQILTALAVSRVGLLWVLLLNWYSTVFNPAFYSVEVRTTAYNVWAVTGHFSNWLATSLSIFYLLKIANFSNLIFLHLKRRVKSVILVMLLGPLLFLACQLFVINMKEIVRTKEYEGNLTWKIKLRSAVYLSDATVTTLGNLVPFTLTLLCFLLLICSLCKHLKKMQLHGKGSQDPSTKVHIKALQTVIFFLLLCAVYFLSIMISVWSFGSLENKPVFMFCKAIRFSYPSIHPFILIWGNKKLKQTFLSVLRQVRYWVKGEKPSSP
Experimental: as §2

TAS2R9 = target: T5, TAS2R9 (Homo sapiens, UniProt Q9NYW1); experiment: Calcium mobilization assay, HEK293T-Gα16gust44 cells expressing TAS2R9; conditions: maximal concentration tested: sucralose 100 mM, neotame 30 µM, Ace-K 300 mM, RebA 4 mM, RebM 4 mM, mogroside V 5 mM, erythritol 200 mM, D-allulose 500 mM, thaumatin 100 mM
T5 sequence (Q9NYW1 1-312): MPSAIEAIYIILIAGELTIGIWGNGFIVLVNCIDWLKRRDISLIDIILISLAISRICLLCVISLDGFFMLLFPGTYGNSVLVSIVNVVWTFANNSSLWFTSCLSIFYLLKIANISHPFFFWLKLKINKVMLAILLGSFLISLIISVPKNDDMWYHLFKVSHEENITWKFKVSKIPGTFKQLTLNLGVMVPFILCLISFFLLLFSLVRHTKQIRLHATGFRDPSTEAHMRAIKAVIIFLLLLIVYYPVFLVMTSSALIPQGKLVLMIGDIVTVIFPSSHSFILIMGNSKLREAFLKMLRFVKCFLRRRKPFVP
Experimental: as §1

TAS2R13 = target: T6, TAS2R13 (Homo sapiens, UniProt Q9NYV9); experiment: Calcium mobilization assay, HEK293T-Gα16gust44 cells expressing TAS2R13; conditions: maximal concentration tested: sucralose 100 mM, neotame 30 µM, Ace-K 300 mM, RebA 4 mM, RebM 4 mM, mogroside V 5 mM, erythritol 200 mM, D-allulose 500 mM, thaumatin 100 mM
T6 sequence (Q9NYV9 1-303): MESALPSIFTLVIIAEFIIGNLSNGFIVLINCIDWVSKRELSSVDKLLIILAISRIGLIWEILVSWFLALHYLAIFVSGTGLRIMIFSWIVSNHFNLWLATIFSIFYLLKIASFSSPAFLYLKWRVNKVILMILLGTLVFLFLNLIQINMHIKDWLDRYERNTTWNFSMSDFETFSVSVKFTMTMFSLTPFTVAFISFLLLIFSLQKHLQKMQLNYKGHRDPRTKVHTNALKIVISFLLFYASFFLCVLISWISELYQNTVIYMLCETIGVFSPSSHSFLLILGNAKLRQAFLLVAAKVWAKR
Experimental: as §2

TAS2R60 = target: T7, TAS2R60 (Homo sapiens, UniProt P59551); experiment: Calcium mobilization assay, HEK293T-Gα16gust44 cells expressing TAS2R60; conditions: maximal concentration tested: sucralose 100 mM, neotame 30 µM, Ace-K 300 mM, RebA 4 mM, RebM 4 mM, mogroside V 5 mM, erythritol 200 mM, D-allulose 500 mM, thaumatin 100 mM
T7 sequence (P59551 1-318): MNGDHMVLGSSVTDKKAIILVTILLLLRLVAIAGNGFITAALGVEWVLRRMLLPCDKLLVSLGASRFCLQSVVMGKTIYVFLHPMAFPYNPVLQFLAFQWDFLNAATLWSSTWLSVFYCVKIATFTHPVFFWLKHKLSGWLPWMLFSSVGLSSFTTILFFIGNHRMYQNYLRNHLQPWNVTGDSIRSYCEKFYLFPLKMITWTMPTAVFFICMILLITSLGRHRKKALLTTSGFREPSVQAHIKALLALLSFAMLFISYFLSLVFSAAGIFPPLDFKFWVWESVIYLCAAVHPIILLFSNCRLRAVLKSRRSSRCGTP
Experimental: as §1

[2] = ref Schiffman and Gatlin (1993)

TAS2R40, sequence (P59535 whole entry): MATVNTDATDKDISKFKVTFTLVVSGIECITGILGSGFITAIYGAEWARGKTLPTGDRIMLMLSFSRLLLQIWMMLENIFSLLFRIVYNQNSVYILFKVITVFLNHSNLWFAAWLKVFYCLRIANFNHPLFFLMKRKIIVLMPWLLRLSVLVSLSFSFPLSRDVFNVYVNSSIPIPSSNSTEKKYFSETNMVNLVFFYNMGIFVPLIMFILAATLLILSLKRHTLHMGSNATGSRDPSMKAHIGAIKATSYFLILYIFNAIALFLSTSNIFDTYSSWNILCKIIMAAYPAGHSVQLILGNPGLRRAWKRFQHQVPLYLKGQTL

Compound	Response of TAS2R50 (TAS2R50)	Sweetness potency ([1]; ref Jia and Yang (2009))	Response of TAS2R42 (TAS2R42)	Response of TAS2R3 (TAS2R3)	Response of TAS2R40 (TAS2R40)	Response of TAS2R31 (TAS2R31)	Response of TAS2R9 (TAS2R9)	Response of TAS2R13 (TAS2R13)	Response of TAS2R60 (TAS2R60)	Sweetness potency ([1]; ref van der Wel and Loeve (1972))	Sweetness potency ([1]; ref Ko et al. (2020))	Sweetness potency [1, 2]	Sweetness potency ([1]; ref Fujimaru et al. (2012))	Sweetness potency ([1]; ref Nofre and Tinti (2000))	Sweetness potency ([1]; ref Prakash et al. (2014))
C[C@H](CC[C@@H](O[C@@H]1O[C@H](CO[C@@H]2O[C@H](CO)[C@@H](O)[C@H](O)[C@H]2O)[C@@H](O)[C@H](O)[C@H]1O[C@@H]1O[C@H](CO)[C@@H](O)[C@H](O)[C@H]1O)C(C)(C)O)[C@H]1CC[C@@]2(C)[C@@H]3CC=C4[C@@H](CC[C@H](O[C@@H]5O[C@H](CO[C@@H]6O[C@H](CO)[C@@H](O)[C@H](O)[C@H]6O)[C@@H](O)[C@H](O)[C@H]5O)C4(C)C)[C@]3(C)[C@H](O)C[C@]12C [Mogroside V, mogroside V]	−	500^c	−	−	−	−	−	−	−						
thaumatin	−		−	−	−	−	−	−	−	100,000^b					
O=C(CO)[C@H](O)[C@H](O)[C@H](O)CO [D-allulose]	−		+	−	−	−	−	−	−		0.6^h				
CC1=CC(=O)NS(=O)(=O)O1 [Ace-K, acesulfame-K]	−		−	−	−	#^b	−	−	−			200^g			
OC[C@@H](O)[C@@H](O)CO [Erythritol, erythritol]	−		−	−	−	−	−	−	−				0.9^f		
OC[C@H]1O[C@H](O[C@]2(CCl)O[C@H](CCl)[C@@H](O)[C@@H]2O)[C@H](O)[C@@H](O)[C@H]1Cl [Sucralose, sucralose]	−		−	−	−	§^a	−	−	−			600^g			
COC(=O)[C@H](Cc1ccccc1)NC(=O)[C@H](CC(=O)O)NCCC(C)(C)C [Neotame]	−		−	−	−	−	−	−	−					10,000^a	
C=C1C[C@@]23CC[C@H]4[C@@](C)(CCC[C@@]4(C)C(=O)O[C@@H]4O[C@H](CO)[C@@H](O)[C@H](O[C@@H]5O[C@H](CO)[C@@H](O)[C@H](O)[C@H]5O)[C@H]4O[C@@H]4O[C@H](CO)[C@@H](O)[C@H](O)[C@H]4O)[C@@H]2CC[C@]1(O[C@@H]1O[C@H](CO)[C@@H](O)[C@H](O[C@@H]2O[C@H](CO)[C@@H](O)[C@H](O)[C@H]2O)[C@H]1O[C@@H]1O[C@H](CO)[C@@H](O)[C@H](O)[C@H]1O)C3 [RebM, Rebaudioside M]	−		−	−	−	−	−	−	−						250^d
